Eleven compounds from US10239894B2, “Inhibitors of indoleamine 2,3-dioxygenase” (GLAXOSMITHKLINE INTELLECTUAL PROPERTY DEVELOPMENT LIMITED, priority 2015, dated 2019) can be followed below.

A short description of series [1]: In vivo pharmacokinetics, mouse clearance.
Series [2] concerns the target T1, indoleamine 2, 3-dioxygenase (IDO1) in IFN-γ/LPS stimulated human monocyte-derived dendritic cells (MDDC) (Homo sapiens, UniProt P14902).
T1 construct: host or cells: human monocyte-derived dendritic cells stimulated with IFN-γ and LPS
Description: IDOi MDDC assay (kynurenine by mass spectrometry). The format is cell-based. The settings on record: human MDDC stimulated with IFN-γ and LPS, 2 days, kynurenine by MS; read-out: pXC50 MDDC (converted).

The target in series [3] is T2, indoleamine 2, 3-dioxygenase (IDO1) in IFN-γ/LPS stimulated human peripheral blood mononuclear cells (PBMC) (Homo sapiens, UniProt P14902).
T2 construct: host or cells: human PBMC stimulated with IFN-γ and LPS
T2 sequence (P14902 whole entry): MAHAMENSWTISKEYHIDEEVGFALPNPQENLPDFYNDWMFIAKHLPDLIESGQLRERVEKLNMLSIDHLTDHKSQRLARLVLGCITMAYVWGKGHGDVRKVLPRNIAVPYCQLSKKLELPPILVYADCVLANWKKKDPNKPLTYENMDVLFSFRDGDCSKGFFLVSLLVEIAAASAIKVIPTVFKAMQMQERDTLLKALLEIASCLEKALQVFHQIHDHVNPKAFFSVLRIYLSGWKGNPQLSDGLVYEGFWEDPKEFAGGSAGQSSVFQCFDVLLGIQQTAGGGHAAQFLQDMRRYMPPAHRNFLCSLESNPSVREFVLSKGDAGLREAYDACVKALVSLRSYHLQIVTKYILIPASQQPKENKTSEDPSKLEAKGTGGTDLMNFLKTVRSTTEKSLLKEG
Description: PBMC IDOi assay (kynurenine by mass spectrometry). The format is cell-based. The conditions noted are these: human PBMC stimulated with IFN-γ and LPS, 2 days, kynurenine by MS; read-out: pXC50 PBMC (converted).

Series [4] addresses T3, indoleamine 2, 3-dioxygenase (IDO1) in IFN-γ stimulated HeLa cells (Homo sapiens, UniProt P14902).
T3 construct: host or cells: HeLa cells stimulated with IFN-γ
Put plainly: HeLa IDOi assay (kynurenine by mass spectrometry). The format is cell-based. The conditions noted are these: HeLa cells stimulated with IFN-γ, 2 days, kynurenine by MS; read-out: pXC50 HeLa (converted).

Series [5] can be described thus: In vivo pharmacokinetics, rat clearance. The settings on record: plasma, intravenous, male nonfasted Wistar Han rats, doses 1 mg/kg i.v. and 5 mg/kg p.o. The method, then: In vivo pharmacokinetic methods, rat: Male nonfasted Wistar Han rats (n=3) received test article at doses of 1 mg/kg i.v. (1 mL/kg) and 5 mg/kg p.o. (5 ml/kg) formulated in a DMSO/solutol/10% hydroxyl-propyl β cyclodextrin (10:10:80) dosing vehicle. For all animals,food and water was provided ad libitum. Blood samples were withdrawn from a surgically-implanted venous cannula at timed intervals for 24 h after dose administration, treated with EDTA, and centrifuged to harvest plasma for LC/MS/MS analysis. Plasma concentration-time data for individual rats were analyzed by noncompartmental analysis using the Phoenix™ WinNonlin® (version 6.2.1, Pharsight Corp., St. Louis, Mo.) software to generate pharmacokinetic parameter estimates.

Another series deals with T4, Recombinant human IDO1 (Homo sapiens, UniProt P14902).
T4 construct: made in house; host or cells: E. coli
T4 sequence (P14902 whole entry): as above
Put plainly: IDOi enzyme assay (absorbance readout of NFK formation at 320 nm). The conditions noted are these: recombinant human IDO1, 2 mM D-tryptophan, 30 min preincubation; read-out: pXC50 enzyme (converted). The format is biochemical.

T1 sequence (P14902 whole entry): as above
T3 sequence (P14902 whole entry): as above

For the compound `O=C(NCCNc1nonc1C(=NO)Nc1ccc(F)c(Br)c1)c1cccc2c1B(O)OCC2` [Compound 1, N-(2-((4-(N-(3-bromo-4-fluorophenyl)-N′-hydroxycarbamimidoyl)-1,2,5-oxadiazol-3-yl)amino)ethyl)-1-hydroxy-3,4-dihydro-1H-benzo[c][1,2]oxaborinine-8-carboxamide], the clearance in series [1] turned out to be 0.6 mL/min/kg; in series [5], 0.8 mL/min/kg. Moreover, the IC50 in series [2] was 158 nM; in series [3], 126 nM; in series [4], 100 nM; at Recombinant human IDO1 it was 100 nM.

For the compound `O=C(NCCNc1nonc1C(=NO)Nc1ccc(F)c(Br)c1)c1cccc2c1B(O)OC=C2` [Compound 2, N-(2-((4-(N-(3-Bromo-4-fluorophenyl)-N′-hydroxycarbamimidoyl)-1,2,5-oxadiazol-3-yl)amino)ethyl)-1-hydroxy-1H-benzo[c][1,2]oxaborinine-8-carboxamide], the IC50 in series [3] was 501 nM; in series [4], 631 nM; on Recombinant human IDO1, 200 nM.

With `O=C(NCCNc1nonc1C(=NO)Nc1ccc(F)c(Br)c1)c1ccc2c(c1)B(O)OC=C2` [Compound 3, N-(2-((4-(N-(3-Bromo-4-fluorophenyl)-N′-hydroxycarbamimidoyl)-1,2,5-oxadiazol-3-yl)amino)ethyl)-1-hydroxy-1H-benzo[c][1,2]oxaborinine-7-carboxamide], the IC50 in series [2] was 2000 nM; in series [3], 316 nM; in series [4], 1260 nM; at Recombinant human IDO1, 79.4 nM. Further, the clearance in series [5] was 0.8 mL/min/kg.

Consider `O=C(NCCNc1nonc1C(=NO)Nc1ccc(F)c(Br)c1)c1ccc2c(c1)B(O)OCC2` [Compound 4, N-(2-((4-(N-(3-Bromo-4-fluorophenyl)-N′-hydroxycarbamimidoyl)-1,2,5-oxadiazol-3-yl)amino)ethyl)-1-hydroxy-3,4-dihydro-1H-benzo[c][1,2]oxaborinine-7-carboxamide], for which the IC50 in series [2] is 1260 nM; in series [3] it was 100 nM; in series [4] it was 158 nM; on Recombinant human IDO1, 50.1 nM. This compound yielded a clearance in series [5] of 2 mL/min/kg.

In the case of `CN(Cc1cccc2c1COB2O)C(=O)CNc1nonc1C(=NO)Nc1ccc(F)c(Br)c1` [Compound 5, 2-((4-(N-(3-Bromo-4-fluorophenyl)-N′-hydroxycarbamimidoyl)-1,2,5-oxadiazol-3-yl)amino)-N-((1-hydroxy-1,3-dihydrobenzo[c][1,2]oxaborol-4-yl)methyl)-N-methylacetamide 2,2,2-trifluoroacetate], the clearance came out at 3.1 mL/min/kg in series [1] and 2.8 mL/min/kg in series [5]. Also, the IC50 in series [2] was 126 nM; in series [3], 158 nM; in series [4], 200 nM; on Recombinant human IDO1 it was 100 nM.

As to `O=C(NCCNc1nonc1C(=NO)Nc1ccc(F)c(Br)c1)c1cccc2c1B(O)OC2` [Compound 6, N-(2-((4-(N-(3-Bromo-4-fluorophenyl)-N′-hydroxycarbamimidoyl)-1,2,5-oxadiazol-3-yl)amino)ethyl)-1-hydroxy-1,3-dihydrobenzo[c][1,2]oxaborole-7-carboxamide], the clearance in series [1] was found to be 7.1 mL/min/kg; in series [5] it was 4.8 mL/min/kg. The IC50 in series [2] was 100 nM; in series [3] it was 100 nM; in series [4] it was 158 nM; at Recombinant human IDO1, 79.4 nM.

As for `O=C(CN1CCOB2OCc3cccc1c32)NCCNc1nonc1C(=NO)Nc1ccc(F)c(Br)c1` [Compound 7], the IC50 in series [3] was 398 nM; in series [4], 631 nM; at Recombinant human IDO1, 100 nM. Further, the clearance in series [5] turned out to be 180 mL/min/kg.

Take `O=C(NCCNc1nonc1C(=NO)Nc1ccc(F)c(Br)c1)c1ccc2c(c1)COB2O` [Compound 8]: the IC50 in series [2] is 79.4 nM; in series [3], 50.1 nM; in series [4] it was 158 nM; on Recombinant human IDO1, 79.4 nM. For the same compound, the clearance in series [5] was 74.9 mL/min/kg.

Turning to `O=C(NCCNc1nonc1C(=NO)Nc1ccc(F)c(Br)c1)Nc1ccc(B(O)O)cc1` [Compound 9], the IC50 in series [2] was 63.1 nM; in series [3], 31.6 nM; in series [4], 100 nM; on Recombinant human IDO1, 31.6 nM. Besides, the clearance in series [5] is 238 mL/min/kg.

In the case of `ON=C(Nc1ccc(F)c(Br)c1)c1nonc1Nc1ccc(B(O)O)cc1` [Compound 10], the IC50 was 631 nM in series [2], 200 nM in series [3], 158 nM in series [4] and 25.1 nM on Recombinant human IDO1. Besides, the clearance in series [5] is 220 mL/min/kg.

For the compound `NS(=O)(=O)NCCNc1nonc1C(=NO)Nc1ccc(F)c(Br)c1` [Compound 11, reference compound], the clearance in series [1] stood at 37.2 mL/min/kg; in series [5] it was 50.6 mL/min/kg.
